Assays:
Prothrombin [1] = target: T1, Prothrombin (Homo sapiens, UniProt P00734); test: Binding affinity values determined by clotting inhibition assays
Prothrombin [2] = target: T1, Prothrombin; test: Inhibitory concentration against Thrombin; 0.029-0.15 uM

| Ki (Prothrombin [1]) [nM] | IC50 (Prothrombin [2]) [nM] | Compound |
| --- | --- | --- |
| 100 |  | CC[C@H](C)[C@H](NC(=O)[C@H]1CCCN1C(=O)[C@H](CCC(=O)O)NC(=O)[C@@H](Cc1ccc(O)cc1)NC(=O)CC(N)C(=O)CCCCCCCNC(=O)c1ccccc1N)C(=O)N1CCC[C@@H]1C(=O)N[C@@H](CCC(=O)O)C(=O)N[C@H](CCC(=O)O)C(=O)N[C@@H](C)C(=O)N[C@H](CC1CCCCC1)C(=O)N[C@@H](CCC(=O)O)C(=O)O (some centres undefined) |
| 100 |  | CC[C@H](C)[C@H](NC(=O)[C@H]1CCCN1C(=O)[C@H](CCC(=O)O)NC(=O)[C@@H](Cc1ccc(O)cc1)NC(=O)CC(N)C(=O)CCCCCCCNc1cccc2c(N(C)C)cccc12)C(=O)N1CCC[C@@H]1C(=O)N[C@@H](CCC(=O)O)C(=O)N[C@H](CCC(=O)O)C(=O)N[C@@H](C)C(=O)N[C@H](CC1CCCCC1)C(=O)N[C@@H](CCC(=O)O)C(=O)O (some centres undefined) |
|  | 29 | CC[C@H](C)[C@H](NC(=O)[C@H]1CCCN1C(=O)[C@H](CCC(=O)O)NC(=O)[C@@H](Cc1ccc(O)cc1)NC(=O)CCC(=O)O)C(=O)N1CCC[C@@H]1C(=O)N[C@@H](CCC(=O)O)C(=O)N[C@H](CCC(=O)O)C(=O)N[C@@H](C)C(=O)N[C@H](CC1CCCCC1)C(=O)N[C@@H](CCC(=O)O)C(=O)O |
| 100 |  | CC[C@H](C)[C@H](NC(=O)[C@H]1CCCN1C(=O)[C@H](CCC(=O)O)NC(=O)[C@@H](Cc1ccc(O)cc1)NC(=O)CC(N)C(=O)CCCCCCCNC(=O)C1=CC(C)(C)N(O)C1(C)C)C(=O)N1CCC[C@@H]1C(=O)N[C@@H](CCC(=O)O)C(=O)N[C@H](CCC(=O)O)C(=O)N[C@@H](C)C(=O)N[C@H](CC1CCCCC1)C(=O)N[C@@H](CCC(=O)O)C(=O)O (some centres undefined) |

Source: ChEMBL document CHEMBL1127748, “Binding of fluorescent and spin-labeled C-terminal hirudin analogs to thrombin” (J Med Chem, 1994)
